Test results taken from US20240158446A1, “CYCLIC COMPOUND HAVING SELECTIVE INHIBITORY ACTION ON KRAS OVER HRAS AND NRAS” (CHUGAI SEIYAKU KABUSHIKI KAISHA, priority 2021, published 2024).
Read-outs that look alike come from different tables or passages of the source. *1 amine or outer side, *2 acyl side, *3 side chain or, on linkers, in order; H or OH if unused. Where a SMILES comes first, the peptide text is derived from it. Bridges are numbered along the chain shown (N, C = ends). [ ]: non-standard residue; d: D form. The star is where a group is joined. hPhe(3-Cl-4-CF3) = N[C@@H](CCc1ccc(C(F)(F)F)c(Cl)c1)C(=O)O; X5 = C=CCN([C@@H](Cc1ccc(C(F)(F)F)cc1)C(=O)[*:2])[*:1]; NPrPhe(4-CF3) = CCCN[C@@H](Cc1ccc(C(F)(F)F)cc1)C(=O)O; 3Oxa8azabicyclo(3.2.1)octane = C1CC2COCC1N2*; NEtPhe(4-Me) = CCN[C@@H](Cc1ccc(C)cc1)C(=O)O; X3 = CCCN([C@H](C(=O)[*:2])C1CCCC1)[*:1]; NMeGly(cPent) = CN[C@H](C(=O)O)C1CCCC1; cisHyp = O=C(O)[C@@H]1C[C@H](O)CN1; Hyp = O=C(O)[C@@H]1C[C@@H](O)CN1; NMeD = CN[C@@H](CC(=O)O)C(=O)O; NMeL = CN[C@@H](CC(C)C)C(=O)O; Oxazolidin(3-yl) = C1CN(*)CO1; Morpholide = C1CN(*)CCO1; NMeA = CN[C@@H](C)C(=O)O; Pyrrolidide = C1CCN(*)C1; Ac5c = NC1(C(=O)O)CCCC1; Aze = O=C(O)[C@@H]1CCN1; Abu = CC[C@H](N)C(=O)O; NEtG = CCNCC(=O)O; Sar = CNCC(=O)O

Experiments:
[1] = molecular target: GDP-bound HRAS wild-type protein (Homo sapiens, UniProt P01112); assay: Binding to HRAS by surface plasmon resonance (SPR), Single Cycle Kinetics; details: for HRAS/KRAS (ratio of KD value with respect to GDP-bound HRAS wild-type protein to KD value with respect to KRAS): SPR KD ratio HRAS/KRAS, class symbols; for HRAS/KRAS (ratio of KD value for HRAS to KD value for KRAS): SPR, GDP-bound HRAS wild-type protein vs GDP-bound KRAS wild-type protein
[2] = system: human lung cancer strain NCI-H441;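 note: cell proliferation inhibition after four days measured by CellTiter-Glo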
[3] = molecular target: GDP-bound NRAS wild-type protein (Homo sapiens, UniProt P01111); assay: Binding to NRAS by surface plasmon resonance (SPR), Single Cycle Kinetics; details: for NRAS/KRAS (ratio of KD value with respect to GDP-bound NRAS wild-type protein to KD value with respect to KRAS): SPR KD ratio NRAS/KRAS, class symbols; for NRAS/KRAS (ratio of KD value for NRAS to KD value for KRAS): SPR, GDP-bound NRAS wild-type protein vs GDP-bound KRAS wild-type protein
[4] = molecular target: GDP-bound KRAS wild-type protein (Homo sapiens, UniProt P01116); assay: Binding to KRAS by surface plasmon resonance (SPR), Single Cycle Kinetics; details: SPR Single Cycle Kinetics, GDP-bound KRAS wild-type protein, 1:1 binding model
Sequence of GDP-bound KRAS wild-type protein (P01116 whole entry): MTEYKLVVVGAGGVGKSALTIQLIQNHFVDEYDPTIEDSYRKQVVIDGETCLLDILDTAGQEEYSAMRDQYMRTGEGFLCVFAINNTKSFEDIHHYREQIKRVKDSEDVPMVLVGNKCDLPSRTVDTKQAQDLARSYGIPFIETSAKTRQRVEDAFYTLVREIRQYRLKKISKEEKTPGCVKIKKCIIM

Sequence of GDP-bound HRAS wild-type protein (P01112 whole entry): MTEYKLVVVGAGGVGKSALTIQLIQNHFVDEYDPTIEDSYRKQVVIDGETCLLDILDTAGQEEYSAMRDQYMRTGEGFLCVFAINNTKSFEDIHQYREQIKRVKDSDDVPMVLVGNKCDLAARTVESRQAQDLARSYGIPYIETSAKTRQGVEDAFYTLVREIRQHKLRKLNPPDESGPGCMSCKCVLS
Sequence of GDP-bound NRAS wild-type protein (P01111 whole entry): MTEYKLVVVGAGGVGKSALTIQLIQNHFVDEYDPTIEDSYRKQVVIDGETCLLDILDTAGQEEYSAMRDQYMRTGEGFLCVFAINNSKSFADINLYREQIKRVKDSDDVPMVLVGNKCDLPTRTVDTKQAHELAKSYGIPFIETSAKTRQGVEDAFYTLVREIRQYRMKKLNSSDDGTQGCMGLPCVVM

| Structure (SMILES) | HRAS/KRAS (ratio of KD value with respect to GDP-bound HRAS wild-type protein to KD value with respect to KRAS) [1] | IC50 [2] | NRAS/KRAS (ratio of KD value with respect to GDP-bound NRAS wild-type protein to KD value with respect to KRAS) [3] | Kd ([4]; read-out: KRAS KD) | HRAS/KRAS (ratio of KD value for HRAS to KD value for KRAS) [1] | NRAS/KRAS (ratio of KD value for NRAS to KD value for KRAS) [3] | Kd ([4]; KRAS KD (M)) |
| --- | --- | --- | --- | --- | --- | --- | --- |
| CCC[C@H]1C(=O)N[C@H]([C@@H](C)CC)C(=O)N2C[C@@H](OC)C[C@H]2C(=O)N(C)[C@H]2C/C=C\CCN(C2=O)[C@@H](Cc2ccc(C)cc2)C(=O)N(C)CC(=O)N[C@@H](CCc2ccc(C(F)(F)F)c(Cl)c2)C(=O)N2C[C@H](OCC)C[C@H]2C(=O)NC2(CCC2)C(=O)N(C)[C@@H](C2CCCC2)C(=O)N(C)[C@H](C(=O)N(C)C)CC(=O)N1C (stereo in doubt) [PP2552] | B (a compound having 3 or more and less than 10 is denoted as B) | 30.5 nM | A (a compound having 10 or more and less than 20 is denoted as A) | 2.8e-10 M | – | – | – |
| CCOC[C@H]1C(=O)N[C@@H]([C@@H](C)CC)C(=O)N(C2CC2)CC(=O)N(C)[C@@H]2C/C=C\CCN(C2=O)[C@@H](Cc2ccc(C)cc2)C(=O)N(C)CC(=O)N[C@@H](CCc2ccc(C(F)(F)F)c(OC)c2)C(=O)N2C[C@H](OCC)C[C@@H]2C(=O)NC2(CC(C)(C)C2)C(=O)N(C)[C@H](CC2CCC2)C(=O)N(C)[C@H](C(=O)N(C)C)CC(=O)N1C (stereo in doubt) [PP2760] | B (a compound having 3 or more and less than 10 is denoted as B) | 144 nM | A (a compound having 10 or more and less than 20 is denoted as A) | 4.8e-09 M | – | – | – |
| CC[C@H](C)[C@@H]1NC(=O)[C@H](CC(C)C)N(C)C(=O)C[C@@H](C(=O)N2CCOCC2)N(C)C(=O)[C@H](C2CCCC2)N(C)C(=O)C2(CCCC2)NC(=O)[C@@H]2C[C@@H](O)CN2C(=O)[C@H](CCc2ccc(C(F)(F)F)c(Cl)c2)NC(=O)CN(C)C(=O)[C@H](Cc2ccc(C)cc2)N(CC)C(=O)CN(C)C(=O)CN(C)C1=O [PP0041] ([NMeL]I[Sar][Sar][NEtPhe(4-Me)][Sar][hPhe(3-Cl-4-CF3)][Hyp][Ac5c][NMeGly(cPent)][NMeD]-Morpholide; lactam N-11) | – | 62.7 nM | – | 1.2e-10 M | C (A compound having a KD ratio of 0.1 or more and less than 3 is denoted as C) | B (a compound having 3 or more and less than 10 is denoted as B) | – |
| CCCN1C(=O)[C@@H]2CCN2C(=O)[C@H](C)N(C)C(=O)[C@H]([C@@H](C)CC)NC(=O)[C@H](CC(C)C)N(C)C(=O)C[C@@H](C(=O)N2CCOCC2)N(C)C(=O)[C@H](C2CCCC2)N(C)C(=O)C2(CCCC2)NC(=O)[C@@H]2CCCN2C(=O)[C@H](CCc2ccc(C(F)(F)F)c(Cl)c2)NC(=O)CN(C)C(=O)[C@@H]1C1CCCC1 [PP0054] ([NMeL]I[NMeA][Aze][X3][Sar][hPhe(3-Cl-4-CF3)]P[Ac5c][NMeGly(cPent)][NMeD]-Morpholide; lactam N-11) | – | 82 nM | – | – | C (A compound having a KD ratio of 0.1 or more and less than 3 is denoted as C) | C (A compound having a KD ratio of 0.1 or more and less than 3 is denoted as C) | 4.5e-09 M |
| CCCN1C(=O)[C@@H]2CCN2C(=O)[C@H](C)NC(=O)[C@H]([C@@H](C)CC)NC(=O)[C@H](CC(C)C)N(C)C(=O)C[C@@H](C(=O)N2CCOCC2)N(C)C(=O)[C@H](C2CCCC2)N(C)C(=O)C2(CCCC2)NC(=O)[C@@H]2CCCN2C(=O)[C@H](CCc2ccc(C(F)(F)F)c(Cl)c2)NC(=O)CN(C)C(=O)[C@@H]1Cc1ccc(C(F)(F)F)cc1 [PP0078] ([NMeL]IA[Aze][NPrPhe(4-CF3)][Sar][hPhe(3-Cl-4-CF3)]P[Ac5c][NMeGly(cPent)][NMeD]-Morpholide; lactam N-11) | – | 4.8 nM | – | 1.9e-10 M | B (a compound having 3 or more and less than 10 is denoted as B) | C (A compound having a KD ratio of 0.1 or more and less than 3 is denoted as C) | – |
| C=CCN1C(=O)CN(C)C(=O)CN(C)C(=O)[C@H]([C@@H](C)CC)NC(=O)[C@H](CC(C)C)N(C)C(=O)C[C@@H](C(=O)N2CCOCC2)N(C)C(=O)[C@H](C2CCCC2)N(C)C(=O)C2(CCCC2)NC(=O)[C@@H]2CCCN2C(=O)[C@H](CCc2ccc(C(F)(F)F)c(Cl)c2)NC(=O)CN(C)C(=O)[C@@H]1Cc1ccc(C(F)(F)F)cc1 [PP0128] ([NMeL]I[Sar][Sar][X5][Sar][hPhe(3-Cl-4-CF3)]P[Ac5c][NMeGly(cPent)][NMeD]-Morpholide; lactam N-11) | – | 10.4 nM | – | 2.5e-10 M | C (A compound having a KD ratio of 0.1 or more and less than 3 is denoted as C) | C (A compound having a KD ratio of 0.1 or more and less than 3 is denoted as C) | – |
| CCCN1C(=O)CN(C)C(=O)CN(C)C(=O)[C@H]([C@@H](C)CC)NC(=O)[C@H](CC(C)C)N(C)C(=O)C[C@@H](C(=O)N2CCCC2)N(C)C(=O)[C@H](C2CCCC2)N(C)C(=O)C2(CCCC2)NC(=O)[C@@H]2CCCN2C(=O)[C@H](CCc2ccc(C(F)(F)F)c(Cl)c2)NC(=O)CN(C)C(=O)[C@@H]1Cc1ccc(C(F)(F)F)cc1 [PP0170] ([NMeL]I[Sar][Sar][NPrPhe(4-CF3)][Sar][hPhe(3-Cl-4-CF3)]P[Ac5c][NMeGly(cPent)][NMeD]-Pyrrolidide; lactam N-11) | – | 5.2 nM | – | 1.2e-10 M | B (a compound having 3 or more and less than 10 is denoted as B) | B (a compound having 3 or more and less than 10 is denoted as B) | – |
| CCCN1C(=O)CN(C)C(=O)CN(C)C(=O)[C@H]([C@@H](C)CC)NC(=O)[C@H](CC(C)C)N(C)C(=O)C[C@@H](C(=O)N2C3CCC2COC3)N(C)C(=O)[C@H](C2CCCC2)N(C)C(=O)C2(CCCC2)NC(=O)[C@@H]2CCCN2C(=O)[C@H](CCc2ccc(C(F)(F)F)c(Cl)c2)NC(=O)CN(C)C(=O)[C@@H]1Cc1ccc(C(F)(F)F)cc1 [PP0173] ([NMeL]I[Sar][Sar][NPrPhe(4-CF3)][Sar][hPhe(3-Cl-4-CF3)]P[Ac5c][NMeGly(cPent)][NMeD]-{3Oxa8azabicyclo(3.2.1)octane}; lactam N-11) | – | 11.6 nM | – | 6.7e-10 M | C (A compound having a KD ratio of 0.1 or more and less than 3 is denoted as C) | B (a compound having 3 or more and less than 10 is denoted as B) | – |
| CCCN1C(=O)CN(C)C(=O)CN(C)C(=O)[C@H]([C@@H](C)CC)NC(=O)[C@H](CC(C)C)N(C)C(=O)C[C@@H](C(=O)N2CCOC2)N(C)C(=O)[C@H](C2CCCC2)N(C)C(=O)C2(CCCC2)NC(=O)[C@@H]2CCCN2C(=O)[C@H](CCc2ccc(C(F)(F)F)c(Cl)c2)NC(=O)CN(C)C(=O)[C@@H]1Cc1ccc(C(F)(F)F)cc1 [PP0174] ([NMeL]I[Sar][Sar][NPrPhe(4-CF3)][Sar][hPhe(3-Cl-4-CF3)]P[Ac5c][NMeGly(cPent)][NMeD]-{Oxazolidin(3-yl)}; lactam N-11) | – | 5.2 nM | – | 1.5e-10 M | B (a compound having 3 or more and less than 10 is denoted as B) | B (a compound having 3 or more and less than 10 is denoted as B) | – |
| CCCN1C(=O)CN(C)C(=O)CN(C)C(=O)[C@H]([C@@H](C)CC)NC(=O)[C@H](CC(C)C)N(C)C(=O)C[C@@H](C(=O)N2CCOCC2)N(C)C(=O)[C@H](C2CCCC2)N(C)C(=O)C2(CCCC2)NC(=O)[C@@H]2C[C@H](O)CN2C(=O)[C@H](CCc2ccc(C(F)(F)F)c(Cl)c2)NC(=O)CN(C)C(=O)[C@@H]1Cc1ccc(C(F)(F)F)cc1 [PP0240] ([NMeL]I[Sar][Sar][NPrPhe(4-CF3)][Sar][hPhe(3-Cl-4-CF3)][cisHyp][Ac5c][NMeGly(cPent)][NMeD]-Morpholide; lactam N-11) | – | 7.9 nM | – | 3.5e-11 M | C (A compound having a KD ratio of 0.1 or more and less than 3 is denoted as C) | B (a compound having 3 or more and less than 10 is denoted as B) | – |
| CCCN1C(=O)CN(C)C(=O)CN(C)C(=O)[C@H]([C@@H](C)CC)NC(=O)[C@H](CC(C)C)N(C)C(=O)C[C@@H](C(=O)N2CCOCC2)N(C)C(=O)[C@H](C2CCCC2)N(C)C(=O)C2(CCCC2)NC(=O)CN(C)C(=O)[C@H](CCc2ccc(C(F)(F)F)c(Cl)c2)NC(=O)CN(C)C(=O)[C@@H]1Cc1ccc(C(F)(F)F)cc1 [PP0266] ([NMeL]I[Sar][Sar][NPrPhe(4-CF3)][Sar][hPhe(3-Cl-4-CF3)][Sar][Ac5c][NMeGly(cPent)][NMeD]-Morpholide; lactam N-11) | – | 15.2 nM | – | 2e-10 M | C (A compound having a KD ratio of 0.1 or more and less than 3 is denoted as C) | B (a compound having 3 or more and less than 10 is denoted as B) | – |
| CCCN1C(=O)CN(C)C(=O)CN(CC)C(=O)[C@H](CC)NC(=O)[C@H](CC(C)C)N(C)C(=O)C[C@@H](C(=O)N2CCOCC2)N(C)C(=O)[C@H](C2CCCC2)N(C)C(=O)C2(CCCC2)NC(=O)[C@@H]2CCCN2C(=O)[C@H](CCc2ccc(C(F)(F)F)c(Cl)c2)NC(=O)CN(C)C(=O)[C@@H]1Cc1ccc(C(F)(F)F)cc1 [PP0290] ([NMeL][Abu][NEtG][Sar][NPrPhe(4-CF3)][Sar][hPhe(3-Cl-4-CF3)]P[Ac5c][NMeGly(cPent)][NMeD]-Morpholide; lactam N-11) | – | 149 nM | – | 4.8e-09 M | C (A compound having a KD ratio of 0.1 or more and less than 3 is denoted as C) | B (a compound having 3 or more and less than 10 is denoted as B) | – |
